“And” between values parts separate entries of the source, which are not always exact repeats. Equal values may be shown once.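 Briefly, cells in 96-well plates were exposed to five compound concentrations for 48 h, and endpoints were estimated by linear interpolation. The concentration for 50% growth inhibition is given as GI50.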 The source made the active and inactive calls. Cut-off read from the data, not from the text of the source: active = GI50 up to about 1.1 µM and inactive = higher.
Tests used:
Test in all cases: growth of human tumour cells (NCI), 48 h
SF-295 = system: SF-295
SK-MEL-28 = system: SK-MEL-28
HCT-116 = system: HCT-116
HCT-15 = system: HCT-15
A549 = system: A549
MDA-MB-231 = system: MDA-MB-231
MOLT-4 = system: MOLT-4
MCF7 = system: MCF7
T47D = system: T47D
SR = system: SR
SN12C = system: SN12C
NCI/ADR-RES = system: NCI/ADR-RES
NCI-H522 = system: NCI-H522
HT-29 = system: HT-29
M14 = system: M14
K562 = system: K562
HOP-92 = system: HOP-92
BT-549 = system: BT-549
UACC-62 = system: UACC-62

Structure (SMILES) | GI50 (SF-295) | GI50 (SK-MEL-28) | GI50 (HCT-116) | GI50 (HCT-15) | GI50 (A549) | GI50 (MDA-MB-231) | GI50 (MOLT-4) | GI50 (MCF7) | GI50 (T47D) | GI50 (SR) | GI50 (SN12C) | GI50 (NCI/ADR-RES) | GI50 (NCI-H522) | GI50 (HT-29) | GI50 (M14) | GI50 (K562) | GI50 (HOP-92) | GI50 (BT-549) | GI50 (UACC-62)
COC(=O)c1cc(C)ccc1C1CN=NC12Cc1cccc(C)c1C2=O (stereo not given) | 36.1 µM (inactive) | 27.3 µM (inactive) | 23800 nM (inactive) | 27600 nM | 31.7 µM (inactive) | 25.6 µM (inactive) | 18700 nM (inactive) | 30.1 µM (inactive) | 12300 nM (inactive) | 26200 nM (inactive) | 43900 nM (inactive) | 25.5 µM (inactive) | 21300 nM (inactive) | 36 µM (inactive) | 16700 nM (inactive) | 33.3 µM (inactive) | 30500 nM (inactive) | – | –
CC(=O)OC(/C=C/c1ccccc1)P1(=O)N(CC(C)(C)C)[C@@H]2CCCC[C@H]2N1CC(C)(C)C (stereo not given in full) | 5.87 µM (inactive) and 3.86 µM (inactive) | 17.7 µM (inactive) and 13.5 µM (inactive) | 4.14 µM (inactive) and 3.53 µM (inactive) | 6750 nM and 4970 nM | 5.05 µM (inactive) and 4.55 µM (inactive) | 9.68 µM (inactive) and 7.26 µM (inactive) | 3.63 µM (inactive) and 3.83 µM (inactive) | 4.79 µM (inactive) and 4.61 µM (inactive) | – | 2.92 µM (inactive) and 4.02 µM (inactive) | 10.4 µM (inactive) and 7.59 µM (inactive) | 5.89 µM (inactive) and 5.11 µM (inactive) | 3.76 µM (inactive) and 3.32 µM (inactive) | 4.25 µM (inactive) and 3.89 µM (inactive) | 5.9 µM (inactive) and 5.24 µM (inactive) | 5.02 µM (inactive) and 4.68 µM (inactive) | 12000 nM (inactive) | 11.5 µM (inactive) and 14.4 µM (inactive) | 9.2 µM (inactive) and 8.99 µM (inactive)
C/C1=C\[C@H](C)C[C@H](C)OC(=O)C[C@H](c2ccc(O)cc2)NC(=O)[C@H](Cc2ccc(O)c(I)c2)N(C)C(=O)[C@H](C)NC(=O)[C@@H](C)C1 | 0.0778 µM (active) | 0.0112 µM (active) | 16 nM (active) | 234 nM | 0.0102 µM (active) | 0.0333 µM (active) | 258 nM (active) | 0.019 µM (active) | – | 96.8 nM (active) | 239 nM (active) | 1.11 µM (active) | 81.8 nM (active) | 0.00274 µM (active) | 40.5 nM (active) | 1.31 µM (inactive) | 36.5 nM (active) | – | 42.8 nM (active)
CC(=O)c1ccc2c(c1)C(=O)c1sc(C(C)=O)cc1C2=O | 1.01 µM (active) | 2.25 µM (inactive) | 488 nM (active) | 918 nM | 2.59 µM (inactive) | 1.23 µM (inactive) | 233 nM (active) | 1.37 µM (inactive) | 1320 nM (inactive) | 419 nM (active) | 578 nM (active) | 0.906 µM (active) | 652 nM (active) | 1.2 µM (inactive) | 910 nM (active) | 1.7 µM (inactive) | 1420 nM (inactive) | – | 995 nM (active)

— ChEMBL document CHEMBL1201862, “PubChem BioAssay data set” (2004)
